From patent US20060074243A1, “Hydroxamic acid and amide compounds and their use as protease inhibitors” (Pharmacia Corporation, priority 2002, published 2006) come the findings set out here.

The target in one assay is T1, Human recombinant MMP-9 (Homo sapiens, UniProt P14780).
T1 construct: made in house; host or cells: MMP-9-transfected HT1080 cells (spent media)
Put plainly: In vitro MMP inhibition analysis (fluorogenic peptide substrate cleavage), Ki. The assay is classed as biochemical. The method, then:
(§1) Several compounds and salts were analyzed in an in vitro assay to determine their ability to inhibit the MMP cleavage of peptide substrates. Inhibition constant (Ki) were calculated from the assayed compound-MMP interactions.
(§2) Human recombinant MMP-1, MMP-2, MMP-9, MMP-13, and MMP-14 were used in this assay. All enzymes were prepared in Assignee's laboratories following usual laboratory procedures. Protocols for the preparation and use of these enzymes are available in the scientific literature. See, e.g., Enzyme Nomenclature (Academic Press, San Diego, Calif., 1992) (and the citations therein). See also, Frije et al., J. Biol. Chem., 26(24), 16766-73 (1994).
The MMP-9 proenzyme was purified by gelatin Sepharose chromatography from spent media of MMP-9-transfected HT1080 cells provided by Dr. Howard Welgus of Washington University (St. Louis, Mo.).
(§3) All MMPs were activated using 4-aminophenylmercuric acetate (“APMA”, Sigma Chemical, St. Louis, Mo.) or trypsin. MMP-9 also was activated using human recombinant MMP-3 (purified in Assignee's laboratory following standard cloning and purification techniques).
(§4) The following fluorogenic, methoxycoumarin-containing polypeptide substrate (I) was used in the MMP inhibition assays: MCA-ArgProLeuGlyLeuDpaAlaArgGluArgNH2 (I) “MCA” is 7-methoxycoumarin-4-yl acetyl. Substrate (I) was prepared Assignee's laboratory. In the absence of MMP inhibitory activity, the substrate is cleaved at the Gly-Leu peptide bond. This cleavage separates the highly fluorogenic peptide from the 2,4-dinitrophenyl quencher, thus resulting in increase of fluorescent intensity.
(§5) The stock solutions of the assayed compounds and salts were prepared in […] (DMSO). These stock solutions were diluted in Buffer A (100 mM Tris-HCl, 100 mM NaCl, 10 mM CaCl2, 0.05% polyoxyethylene 23 lauryl ether, pH 7.5) to obtain solutions with different compound concentrations, i.e., assay solutions with different concentrations of the assayed […] compound. The experiment controls contained the same amount of Buffer A/DMSO as the assayed sample, but contained none of the tested compound or salt.
(§6) The assays from which the Ki determinations were made were performed as follows. The assayed compound samples were incubated in separate wells of untreated white polystyrene plates (Nunc Nalgene International, Rochester, N.Y.), and analyzed on a Tecan SpectraFlour Plus plate reader. The excitation wavelength was 330 nm, and the emission wavelength—420 nm. All samples (assayed compounds and controls) were incubated in separate plate wells at room temperature for 1 hr in the presence of 4 μM of MMP substrate (I). In the absence of MMP inhibitory activity, substrate (I) was cleaved at the Gly-Leu bond resulting in an increase of relative fluorescence. Inhibition was observed as a reduced rate of this increase in relative fluorescence. […] This protocol is a modification of method by Knight et al., FEBS Lett., 296(3), 263-266 (1992). Apparent inhibitory constants were determined by non-linear regression of reaction velocity as a function of inhibitor and enzyme concentration using Morrison's equation, as described by Kuzmic, Anal. Biochem. 286, 45-50 (2000). Modifications were made in the non-linear regression method to allow a common control reaction rate and effective enzyme concentration to be shared between all dose-response relationships on a given assay plate. Since the substrate concentration was chosen to be at or below the Km, the apparent Ki's from this analysis were reported as Ki's without correction for the influence of substrate.
The above protocols were used to determine Ki constants for the compounds in Examples 2-35 above. All Ki values in Table 1 are given in nM units.

A further assay addresses T2, Human recombinant MMP-13 (Homo sapiens, UniProt P45452).
T2 construct: made in house; host or cells: baculovirus / insect cells
The description is as above. In kind it is biochemical. On the procedure: as §1, §2
The MMP-13 was obtained as a proenzyme from a full-length cDNA clone using baculovirus, as described by V. A. Luckow, “Insect Cell Expression Technology,” Protein Engineering: Principles and Practice, pp. 183-218 (edited by J. L. Cleland et al., Wiley-Liss, Inc., 1996). The expressed proenzyme was first purified over a heparin agarose column, and then over a chelating zinc chloride column. The proenzyme was then activated by APMA for use in the assay. Further details on baculovirus expression systems may be found in, for example, Luckow et al., J. Virol., 67, 4566-79 (1993). See also, O'Reilly et al, Baculovirus Expression Vectors: A Laboratory Manual (W.H. Freeman and Co., New York, N.Y., 1992). See also, King et al., The Baculovirus Expression System: A Laboratory Guide (Chapman & Hall, London, England, 1992).
as §3, §4, §5
as §6, with “Modifications were made in the non-linear regression method to allow a common control reaction rate and effective enzyme concentration to be shared between all dose-response relationships on a given assay plate. Since the substrate concentration was chosen to be at or below the Km, the apparent Ki's from this analysis were reported as Ki's without correction for the influence of substrate.” left out

Structures are written as SMILES. pKi: −log10 of the molar value.

T1 sequence (P14780 107-707 limits assumed): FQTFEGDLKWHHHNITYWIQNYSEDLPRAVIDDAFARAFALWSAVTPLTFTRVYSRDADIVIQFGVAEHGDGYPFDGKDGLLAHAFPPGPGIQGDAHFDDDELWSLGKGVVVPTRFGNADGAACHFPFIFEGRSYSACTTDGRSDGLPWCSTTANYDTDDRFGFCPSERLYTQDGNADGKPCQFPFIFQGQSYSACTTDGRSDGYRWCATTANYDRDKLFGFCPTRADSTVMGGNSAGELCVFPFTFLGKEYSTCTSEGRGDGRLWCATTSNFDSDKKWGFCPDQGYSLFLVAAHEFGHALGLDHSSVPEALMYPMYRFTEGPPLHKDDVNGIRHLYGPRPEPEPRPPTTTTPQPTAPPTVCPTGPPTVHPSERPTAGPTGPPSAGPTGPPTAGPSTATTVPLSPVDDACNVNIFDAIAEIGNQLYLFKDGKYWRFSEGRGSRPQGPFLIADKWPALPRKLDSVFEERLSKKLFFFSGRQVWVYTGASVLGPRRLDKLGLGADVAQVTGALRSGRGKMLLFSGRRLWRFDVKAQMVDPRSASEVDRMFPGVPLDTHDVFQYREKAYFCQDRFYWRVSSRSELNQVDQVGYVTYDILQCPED

As a reminder, the pKi is −log10 of the Ki, conventionally taken in molar units. `O=C(NO)C1(S(=O)(=O)c2ccc(-c3cnc(CCC(F)(F)F)cn3)cc2)CCOCC1` [Example 62]: the pKi is 8.74 on Human recombinant MMP-9 (Table 1) and 9.35 at Human recombinant MMP-13 (Table 1).

As to `CCN1CCC(C(=O)NO)(S(=O)(=O)c2ccc(-c3ccc(CCC(F)(F)C(F)(F)F)cn3)cc2)CC1` [Example 52], the pKi at Human recombinant MMP-9 (Table 1) is 9.24; at Human recombinant MMP-13 (Table 1), 10.15.

For the compound `COCCN1CCC(C(=O)NO)(S(=O)(=O)c2ccc(-c3cnc(OCC(F)(F)C(F)(F)F)cn3)cc2)CC1` [Example 157], the values for the pKi at Human recombinant MMP-9 (Table 2) and on Human recombinant MMP-13 (Table 2) were 9.38 and 9.59, respectively.

As for `O=C(NO)C1(S(=O)(=O)c2ccc(-c3ccc(CCC(F)(C(F)(F)F)C(F)(F)F)cn3)cc2)CCOCC1` [Example 133], the pKi is 7.45 on Human recombinant MMP-9 (Table 2) and 8.69 on Human recombinant MMP-13 (Table 2).

Regarding `O=C(NO)C1(S(=O)(=O)c2ccc(-c3cnc(N4CCCC4)cn3)cc2)CCOCC1` [Example 138], the figures for the pKi at Human recombinant MMP-9 (Table 2) and at Human recombinant MMP-13 (Table 2) were 8.98 and 9.24, respectively.

As to `O=C(NO)C1(S(=O)(=O)c2ccc(-c3ccc(-c4ccccc4)cc3)cc2)CCN(C2CC2)CC1` [Example 153], the pKi at Human recombinant MMP-9 (Table 2) was 9.74; at Human recombinant MMP-13 (Table 2), 9.82.

Consider `O=C(NO)C1(S(=O)(=O)c2ccc(-c3cnc(N4CCCCC4)cn3)cc2)CCOCC1` [Example 131], for which the pKi at Human recombinant MMP-9 (Table 2) is 8.28; on Human recombinant MMP-13 (Table 2) it was 8.69.

With `O=C(NO)C1(S(=O)(=O)c2ccc(-c3ccc(-c4ccc(OC(F)(F)F)cc4)cn3)cc2)CCN(C2CC2)CC1` [Example 145], the pKi is 8.18 at Human recombinant MMP-9 (Table 2) and 9.59 on Human recombinant MMP-13 (Table 2).

Regarding `CCCCc1ccc(-c2ccc(S(=O)(=O)C3(C(=O)NO)CCN(CC)CC3)cc2)nc1` [Example 140], the pKi was 9.90 at Human recombinant MMP-9 (Table 2) and 10.24 at Human recombinant MMP-13 (Table 2).

On to `COCCN1CCC(C(=O)NO)(S(=O)(=O)c2ccc(-c3ccc(CCC(C)(F)F)cn3)cc2)CC1` [Example 67], for which the pKi on Human recombinant MMP-9 (Table 1) is 9.72; at Human recombinant MMP-13 (Table 1), 10.15.

Turning to `CCN1CCC(C(=O)NO)(S(=O)(=O)c2ccc(-c3ccc(-c4ccncc4)cc3)cc2)CC1` [Example 136], the pKi on Human recombinant MMP-9 (Table 2) is 9.38; at Human recombinant MMP-13 (Table 2), 10.68.

Regarding `CCCCCc1ccc(-c2ccc(S(=O)(=O)C3(C(=O)NO)CCOCC3)cc2)cc1` [Example 75], the pKi on Human recombinant MMP-9 (Table 2) was 9.00; on Human recombinant MMP-13 (Table 2), 9.52.
